Laboratory results from article PMC6222450, “Computer-Aided Studies for Novel Arylhydantoin 1,3,5-Triazine Derivatives as 5-HT6 Serotonin Receptor Ligands with Antidepressive-Like, Anxiolytic and Antiobesity Action In Vivo” (Molecules : A Journal of Synthetic Chemistry and Natural …, 2018).
Where “and” joins values, the source holds several entries; their conditions need not be identical. Equal values may be shown once.

How the values were obtained:
human serotonin 5-HT6R = target: T1, human serotonin 5-HT6R (Homo sapiens, UniProt P50406); assay: Radioligand binding assay, 5-HT6R, [3H]-LSD displacement; conditions: human receptor stably expressed in HEK-293 cells; mean of at least two independent experiments; read-out: Ki 5-HT6 [3H]-LSD
T1 construct: expressed in transfected cells; host or cells: HEK-293
Procedure: Five selective radioligands were employed (Table 1).
Radioligand binding assays were used to determine the affinity of the synthesized compounds for human serotonin 5-HT6R, which were stably expressed in HEK-293 cells. […] Each compound was tested in triplicate at 7 to 8 different concentrations (10^−11 to 10^−4 M). The inhibition constants (Ki) were calculated using the Cheng–Prusoff equation [40], and the results are expressed as the mean of at least two independent experiments.

dopaminergic D2LR = target: T2, dopaminergic D2LR (Homo sapiens, UniProt P14416); assay: Radioligand binding assay, D2LR, [3H]-Raclopride; conditions: human D2L receptor stably expressed in HEK-293 cells; read-out: Ki D2 [3H]-Raclopride
T2 construct: expressed in transfected cells; host or cells: HEK-293

5-HT1A = target: T3, 5-HT1A (Homo sapiens, UniProt P08908); assay: Radioligand binding assay, 5-HT1A, [3H]-8-OH-DPAT; conditions: human receptor stably expressed in HEK-293 cells
T3 construct: expressed in transfected cells; host or cells: HEK-293
T3 sequence (P08908 1-422): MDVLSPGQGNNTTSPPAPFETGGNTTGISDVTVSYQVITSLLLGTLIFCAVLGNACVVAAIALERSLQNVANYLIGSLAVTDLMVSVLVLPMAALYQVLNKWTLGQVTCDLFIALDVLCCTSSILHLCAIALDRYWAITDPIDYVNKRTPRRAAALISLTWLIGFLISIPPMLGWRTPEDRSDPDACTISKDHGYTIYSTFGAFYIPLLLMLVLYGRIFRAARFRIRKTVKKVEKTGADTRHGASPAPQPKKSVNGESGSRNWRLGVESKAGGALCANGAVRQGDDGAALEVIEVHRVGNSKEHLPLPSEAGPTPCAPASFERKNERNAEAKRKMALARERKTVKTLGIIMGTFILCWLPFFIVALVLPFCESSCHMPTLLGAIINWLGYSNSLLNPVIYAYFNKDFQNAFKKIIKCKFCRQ

5-HT2A = target: T4, 5-HT2A (Homo sapiens, UniProt P28223); assay: Radioligand binding assay, 5-HT2A, [3H]-Ketanserin; conditions: human receptor stably expressed in HEK-293 cells
T4 construct: expressed in transfected cells; host or cells: HEK-293

5-HT7bR = target: T5, 5-HT7bR (Homo sapiens, UniProt P34969); assay: Radioligand binding assay, 5-HT7bR, [3H]-5-CT; conditions: human 5-HT7b receptor stably expressed in HEK-293 cells; read-out: Ki 5-HT7 [3H]-5-CT
T5 construct: expressed in transfected cells; host or cells: HEK-293

Lipophilicity by RP-TLC = type: physicochemical; conditions: RP-18 TLC, water/methanol, extrapolated to 100% water
Procedure: For comparison, the active arylmethyl-triazine compounds previously found (1–3) were also examined. Stationary phase RP-18 and mixtures of water/methanol […] as a mobile phase were employed. RM values were calculated from the RF data obtained. […] The regression coefficients (r^2) determined for all compounds were higher than 0.95. On the basis of the linear relationship between RM values and the volume fraction of methanol, values of RM0 in the systems analyzed corresponding to 100% of water were obtained by extrapolation. RM0 values received for the compounds tested ranged from 3.14 to 4.49 (Figure 6).
The mobile phases were prepared by mixing the respective amounts of water and organic modifier (methanol) in a range from 40 to 90% (v/v) in 5% increments. TLC was performed on Silica gel 60RP-18 F254 plates (7 × 10 cm) plates (Merck, Darmstadt, Germany). Methanol was used to prepare the solutions of the substances. Solutions (10 µL) of the analyzed compounds were applied to the plates as 5 mm bands, 10 mm apart and 10 mm from the lower edge and sides of the plates, by using Linomat V applicator (Camag, Basel, Switzerland). The vertical chamber (Sigma–Aldrich, St. Louis, MI, USA), 20 × 10 × 18 cm in size, was saturated with mobile phase for 20 min. Development was carried out over 9 cm from the starting line at a temperature of 20 °C. Next, the plates were dried at room temperature, and the spots were observed under ultraviolet light at 254 nm and/or 366 nm (UV lamp, Camag, Basel, Switzerland). In each case, sharp and symmetric spots without a tendency for tailing were obtained. Each experiment was run in triplicate and mean RF (retardation factor) values were calculated.
Starting from the RF values, the RM parameters were computed as described in the formula:RM = log(1/RF − 1)
The linear correlations between the RM values of the substances and the concentration of methanol in mobile phases were calculated for each compound with the Soczewiński-Wachtmeister equation [22]:RM = RM0 + aC where C is the concentration of the organic modifier (in %) in the mobile phase, a is the slope, and RM0 is the […].

T4 sequence (P28223 whole entry): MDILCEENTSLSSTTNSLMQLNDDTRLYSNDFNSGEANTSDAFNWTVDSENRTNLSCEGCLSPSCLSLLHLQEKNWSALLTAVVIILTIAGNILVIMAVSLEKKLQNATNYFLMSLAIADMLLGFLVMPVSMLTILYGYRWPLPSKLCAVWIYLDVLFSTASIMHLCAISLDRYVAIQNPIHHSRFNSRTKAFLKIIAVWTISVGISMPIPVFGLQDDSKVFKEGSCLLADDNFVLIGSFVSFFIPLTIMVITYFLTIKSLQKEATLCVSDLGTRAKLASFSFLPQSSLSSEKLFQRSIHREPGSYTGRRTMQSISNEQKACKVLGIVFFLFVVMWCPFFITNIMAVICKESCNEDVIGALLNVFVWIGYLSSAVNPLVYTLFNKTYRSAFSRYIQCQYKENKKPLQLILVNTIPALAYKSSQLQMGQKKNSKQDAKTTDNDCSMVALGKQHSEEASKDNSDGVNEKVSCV
T5 sequence (P34969 1-432 limits assumed): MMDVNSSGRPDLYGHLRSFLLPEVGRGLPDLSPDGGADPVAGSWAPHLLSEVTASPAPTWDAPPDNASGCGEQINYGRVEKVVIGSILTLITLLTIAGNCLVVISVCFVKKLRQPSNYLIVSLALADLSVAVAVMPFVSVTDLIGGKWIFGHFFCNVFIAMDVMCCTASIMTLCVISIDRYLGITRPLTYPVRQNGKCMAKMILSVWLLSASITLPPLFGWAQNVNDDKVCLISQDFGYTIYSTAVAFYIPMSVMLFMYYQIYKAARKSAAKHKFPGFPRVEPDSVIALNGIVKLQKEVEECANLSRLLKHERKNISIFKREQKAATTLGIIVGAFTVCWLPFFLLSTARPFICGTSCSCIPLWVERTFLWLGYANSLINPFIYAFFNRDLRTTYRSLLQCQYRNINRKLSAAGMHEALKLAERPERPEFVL
T2 sequence (P14416 whole entry): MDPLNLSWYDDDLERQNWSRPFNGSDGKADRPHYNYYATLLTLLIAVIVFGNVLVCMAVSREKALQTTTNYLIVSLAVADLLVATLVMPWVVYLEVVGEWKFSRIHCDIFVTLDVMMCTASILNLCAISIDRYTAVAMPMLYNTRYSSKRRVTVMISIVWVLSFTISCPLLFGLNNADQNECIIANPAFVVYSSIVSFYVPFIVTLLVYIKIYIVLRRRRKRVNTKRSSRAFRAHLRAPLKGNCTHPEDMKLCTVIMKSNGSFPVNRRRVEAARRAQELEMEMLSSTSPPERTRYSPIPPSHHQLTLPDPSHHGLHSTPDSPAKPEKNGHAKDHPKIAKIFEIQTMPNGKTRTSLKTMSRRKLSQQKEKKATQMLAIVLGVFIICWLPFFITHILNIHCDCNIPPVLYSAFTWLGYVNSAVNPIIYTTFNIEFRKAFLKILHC
T1 sequence (P50406 whole entry): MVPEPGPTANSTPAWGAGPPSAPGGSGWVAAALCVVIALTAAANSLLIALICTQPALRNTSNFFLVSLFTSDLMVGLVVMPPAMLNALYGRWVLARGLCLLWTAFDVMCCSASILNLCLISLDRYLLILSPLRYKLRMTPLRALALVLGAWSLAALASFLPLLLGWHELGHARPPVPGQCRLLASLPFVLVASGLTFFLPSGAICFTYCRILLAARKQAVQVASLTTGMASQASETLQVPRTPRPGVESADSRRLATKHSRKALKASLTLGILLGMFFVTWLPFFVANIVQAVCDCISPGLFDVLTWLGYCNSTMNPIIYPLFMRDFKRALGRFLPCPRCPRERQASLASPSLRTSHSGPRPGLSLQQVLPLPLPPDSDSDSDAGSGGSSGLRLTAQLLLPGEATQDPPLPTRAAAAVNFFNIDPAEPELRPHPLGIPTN

Row | Compound | Ki (human serotonin 5-HT6R) | Ki (dopaminergic D2LR) | Ki (5-HT1A) | Ki (5-HT2A) | Ki (5-HT7bR) | RM0 (Lipophilicity by RP-TLC)
1 | Cc1cccc(CN2C(=O)N(Cc3nc(N)nc(N4CCN(C)CC4)n3)C(=O)C2(C)C)c1 [Compound 17, 1-(3-Methylbenzyl)-3-((4-amino-6-(4-methylpiperazin-1-yl)-1,3,5-triazin-2-yl)methyl)-5,5-dimethylimidazolidine-2,4-dione] | 0.895 µM | 5.21 µM | 17 µM | 0.817 µM | 0.42 µM | –
2 | CN1CCN(c2nc(N)nc(Cc3cccc4ccccc34)n2)CC1 [Compound 1, reference compound] | – | – | – | – | – | 3.14
3 | CN1CCN(c2nc(N)nc(Cc3cccc(Cl)c3)n2)CC1 [Compound 2, reference compound] | – | – | – | – | – | 3.25
4 | CN1CCN(c2nc(N)nc(CN3C(=O)NC(C)(c4cc(Cl)ccc4Cl)C3=O)n2)CC1 (centres unmarked) [Compound 21, 3-((4-Amino-6-(4-methylpiperazin-1-yl)-1,3,5-triazin-2-yl)methyl)-5-(2,5-dichlorophenyl)-5-methylimidazolidine-2,4-dione] | 0.403 µM | 11.5 µM | 26.2 µM | 11.1 µM | 1.56 µM | –
5 | CN1CCN(c2nc(N)nc(CN3C(=O)N(Cc4ccccc4)C(C)(C)C3=O)n2)CC1 [Compound 9, 3-((4-Amino-6-(4-methylpiperazin-1-yl)-1,3,5-triazin-2-yl)methyl)-1-benzyl-5,5-dimethylimidazolidine-2,4-dione] | 0.592 µM | 8.78 µM | 42.6 µM | 1.6 µM | 0.35 µM | –
6 | Cc1ccc(C2(C)NC(=O)N(Cc3nc(N)nc(N4CCN(C)CC4)n3)C2=O)cc1 (centres unmarked) [Compound 24, 3-((4-Amino-6-(4-methylpiperazin-1-yl)-1,3,5-triazin-2-yl)methyl)-5-(4-methylphenyl)-5-methylimidazolidine-2,4-dione] | 0.667 µM | 23.3 µM | 22.3 µM | 24.4 µM | 0.564 µM | –
7 | CN1CCN(c2nc(N)nc(CN3C(=O)N(Cc4cccc(Br)c4)C(C)(C)C3=O)n2)CC1 [Compound 15, 1-(3-Bromobenzyl)-3-((4-amino-6-(4-methylpiperazin-1-yl)-1,3,5-triazin-2-yl)methyl)-5,5-dimethylimidazolidine-2,4-dione] | 0.57 µM | 6.68 µM | 12.9 µM | 1.33 µM | 0.571 µM | –
8 | CN1CCN(c2nc(N)nc(CN3C(=O)NC(C)(c4ccccc4)C3=O)n2)CC1 (centres unmarked) [Compound 19, 3-((4-Amino-6-(4-methylpiperazin-1-yl)-1,3,5-triazin-2-yl)methyl)-5-methyl-5-phenylimidazolidine-2,4-dione] | 0.726 µM | 41 µM | 31.6 µM | 12.1 µM | 1.1 µM | –
9 | CN1CCN(c2nc(N)nc(CN3C(=O)N(Cc4cc(Cl)ccc4Cl)C(C)(C)C3=O)n2)CC1 [Compound 11, 1-(2,5-Dichlorobenzyl)-3-((4-amino-6-(4-methylpiperazin-1-yl)-1,3,5-triazin-2-yl)methyl)-5,5-dimethylimidazolidine-2,4-dione] | 0.597 µM | 2.87 µM | 4.16 µM | 0.809 µM | 0.279 µM | –
10 | Cc1cccc(Cc2nc(N)nc(N3CCN(C)CC3)n2)c1 [Compound 3, reference compound] | – | – | – | – | – | 3.58
11 | CN1CCN(c2nc(N)nc(CN3C(=O)N(Cc4cccc(F)c4)C(C)(C)C3=O)n2)CC1 [Compound 14, 1-(3-Fluorobenzyl)-3-((4-amino-6-(4-methylpiperazin-1-yl)-1,3,5-triazin-2-yl)methyl)-5,5-dimethylimidazolidine-2,4-dione] | 0.447 µM | 6.58 µM | 37.1 µM | 0.239 µM | 0.088 µM | –
12 | COc1cccc(CN2C(=O)N(Cc3nc(N)nc(N4CCN(C)CC4)n3)C(=O)C2(C)C)c1 [Compound 16, 1-(3-Methoxybenzyl)-3-((4-amino-6-(4-methylpiperazin-1-yl)-1,3,5-triazin-2-yl)methyl)-5,5-dimethylimidazolidine-2,4-dione] | 0.692 µM | 15.5 µM | 23.9 µM | 2.04 µM | 3.59 µM | –
13 | CN1CCN(c2nc(N)nc(CN3C(=O)N(Cc4ccc(Cl)cc4Cl)C(C)(C)C3=O)n2)CC1 [Compound 12, 1-(2,4-Dichlorobenzyl)-3-((4-amino-6-(4-methylpiperazin-1-yl)-1,3,5-triazin-2-yl)methyl)-5,5-dimethylimidazolidine-2,4-dione] | 0.205 µM | 0.681 µM | 7.69 µM | 3.59 µM | 1.12 µM | –
14 | CN1CCN(c2nc(N)nc(CN3C(=O)N(Cc4ccc(Cl)cc4)C(=O)C3(C)C)n2)CC1 [Compound 5, 3-(4-Chlorobenzyl)-1-((4-amino-6-(4-methylpiperazin-1-yl)-1,3,5-triazin-2-yl)methyl)-5,5-dimethylimidazolidine-2,4-dione] | 4.28 µM | 5.01 µM | 15.4 µM | – | 1.62 µM | 3.22
15 | CN1CCN(c2nc(N)nc(CN3C(=O)NC(C)(c4ccc(Cl)cc4)C3=O)n2)CC1 (centres unmarked) [Compound 7, 3-((4-Amino-6-(4-methylpiperazin-1-yl)-1,3,5-triazin-2-yl)methyl)-5-(4-chlorophenyl)-5-methylimidazolidine-2,4-dione] | < 0.2 µM and 0.176 µM | 31.2 µM | 28.1 µM | – | 0.938 µM | 3.51
16 | CN1CCN(c2nc(N)nc(CN3C(=O)NC(C)(c4ccc(Cl)cc4Cl)C3=O)n2)CC1 (centres unmarked) [Compound 22, 3-((4-Amino-6-(4-methylpiperazin-1-yl)-1,3,5-triazin-2-yl)methyl)-5-(2,4-dichlorophenyl)-5-methylimidazolidine-2,4-dione] | 0.457 µM | 15.1 µM | 14 µM | 10.8 µM | 10.1 µM | –
17 | CN1CCN(c2nc(N)nc(CN3C(=O)NC(C)(c4cccc(Cl)c4)C3=O)n2)CC1 (centres unmarked) [Compound 20, 3-((4-Amino-6-(4-methylpiperazin-1-yl)-1,3,5-triazin-2-yl)methyl)-5-(3-chlorophenyl)-5-methylimidazolidine-2,4-dione] | 0.418 µM | 16.8 µM | 4.1 µM | 7.4 µM | 0.791 µM | –
18 | CN1CCN(c2nc(N)nc(CN3C(=O)N(Cc4cccc(Cl)c4)C(C)(C)C3=O)n2)CC1 [Compound 10, 1-(3-Chlorobenzyl)-3-((4-amino-6-(4-methylpiperazin-1-yl)-1,3,5-triazin-2-yl)methyl)-5,5-dimethylimidazolidine-2,4-dione] | 0.271 µM | 4.63 µM | 13.6 µM | 0.328 µM | 0.159 µM | –
19 | CN1CCN(c2nc(N)nc(CN3C(=O)NC(C)(C)C3=O)n2)CC1 [Compound 4] | 0.427 µM | 22.3 µM | – | – | 35.8 µM | –
20 | CN1CCN(c2nc(N)nc(CN3C(=O)N(Cc4ccc(F)cc4)C(C)(C)C3=O)n2)CC1 [Compound 13, 1-(4-Fluorobenzyl)-3-((4-amino-6-(4-methylpiperazin-1-yl)-1,3,5-triazin-2-yl)methyl)-5,5-dimethylimidazolidine-2,4-dione] | 0.663 µM | 6.56 µM | 48.4 µM | 3.55 µM | 0.953 µM | –
